US10092537B2, “Use for PAI-1 inhibitor” (RENASCIENCE CO., LTD., priority 2013, dated 2018)

How the values were obtained:
human PAI-1 [1] = target: T1, human PAI-1 (Homo sapiens, UniProt P05121); assay: Measurement of PAI-1 inhibitory activity of compound group 2 (t-PA, S-2288 chromogenic substrate); details: PAI-1 activity of the system without compound after 30 minutes taken as 100%
Procedure: Subsequently, human-derived tissue plasminogen activator (t-PA) (manufactured by American Diagnostica, Inc. (USA); the same applies hereinafter) adjusted to 0.3 pmol/μL was added thereto, and the mixture was further incubated at 37° C. for 15 minutes.

human PAI-1 [2] = target: T1, human PAI-1; assay: Measurement of PAI-1 inhibitory activity of compound group 1 (t-PA, S-2288 chromogenic substrate); details: read-out: PAI-1 activity %
Procedure: Subsequently, human-derived tissue plasminogen activator (t-PA) (manufactured by American Diagnostica, Inc. (USA); the same applies hereinafter) adjusted to 0.35 pmol/μL was added thereto, and the mixture was further incubated at 37° C. for 15 minutes.

human PAI-1 [3] = target: T1, human PAI-1; assay: Measurement of PAI-1 inhibitory activity of compound group 3 (t-PA, S-2288 chromogenic substrate; Table 4)
Procedure: Subsequently, tissue plasminogen activator (t-PA) (manufactured by American Diagnostica, Inc. (USA); the same applies hereinafter) adjusted to 0.3 pmol/μL was added thereto, and further incubated at 37° C. for 15 minutes.

human PAI-1 [4] = target: T1, human PAI-1; assay: Measurement of PAI-1 inhibitory activity of compound group 1 (t-PA, Spectrozyme t-PA chromogenic substrate); details: read-out: PAI-1 activity %

T1 sequence (P05121 24-402): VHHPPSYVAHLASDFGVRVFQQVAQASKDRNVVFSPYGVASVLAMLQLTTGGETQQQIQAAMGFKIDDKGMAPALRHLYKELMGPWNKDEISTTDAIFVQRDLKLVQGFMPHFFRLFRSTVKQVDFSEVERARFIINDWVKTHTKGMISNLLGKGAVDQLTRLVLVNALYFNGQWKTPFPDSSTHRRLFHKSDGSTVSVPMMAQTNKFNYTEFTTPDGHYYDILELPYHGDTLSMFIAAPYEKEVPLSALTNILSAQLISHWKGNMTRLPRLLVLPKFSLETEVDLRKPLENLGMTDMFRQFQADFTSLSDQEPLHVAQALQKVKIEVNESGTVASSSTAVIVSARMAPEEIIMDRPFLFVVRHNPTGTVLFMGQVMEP

PAI-1 activity % (human PAI-1 [1]; compound 50 μM)	PAI-1 activity % (human PAI-1 [1]; compound 100 μM)	activity at 20 µM (human PAI-1 [2])	activity at 50 µM (human PAI-1 [2])	PAI-1 activity % (human PAI-1 [3]; compound concentration 20 μM)	PAI-1 activity % (human PAI-1 [3]; compound concentration 50 μM)	PAI-1 activity % (human PAI-1 [1]; compound 20 μM)	activity at 2.5 µM (human PAI-1 [4])	activity at 10 µM (human PAI-1 [4])	SMILES
99.3%	20.7%	68.2%	26.1%	64.7%	11.5%	–	–	–	O=C([O-])c1cc(Cl)ccc1NC(=O)C1CCCN(C(=O)c2cccc(-c3ccoc3)c2)C1.[Na+] (stereo not drawn) [Example 11, sodium 5-chloro-2-{[(1-{[3-(furan-3-yl)phenyl]carbonyl}piperidin-3-yl)carbonyl]amino}benzoate]
13.1%	–	–	–	59.2%	17.7%	97.7%	22.6%	0.1%	O=C(Nc1ccc(Cl)cc1C(=O)[O-])c1cccc(-c2cccc3cnccc23)c1.[Na+] [Example 66, sodium 5-chloro-2-({[3-(isoquinolin-5-yl)phenyl]carbonyl}amino)benzoate]
75.0%	–	–	–	57.6%	8.1%	99.8%	90.4%	0.6%	O=C(Nc1ccc(Cl)cc1C(=O)[O-])c1ccc(-c2cccc3cccnc23)cc1.[Na+] [Example 67, sodium 5-chloro-2-({[4-(quinolin-8-yl)phenyl]carbonyl}amino)benzoate]
66.3%	–	–	–	20.7%	9.4%	99.8%	2.4%	2.1%	O=C(Nc1ccc(Cl)cc1C(=O)[O-])c1cccc(-c2cccc3cccnc23)c1.[Na+] [Example 68, sodium 5-chloro-2-({[3-(quinolin-8-yl)phenyl]carbonyl}amino)benzoate]
